Measured values as given in patent US20190185417A1, “NOVEL ANTIBIOTICS” (priority 2016, published 2019).
Converted amounts (≈) assume the structure as drawn.

Columns and labels:
Type in all cases: cell-based
[1] = system: Haemophilus influenzae (ATCC 49247); experiment: MIC by broth microdilution; conditions: Table 2, Example 2
Method: (§1) The antibacterial potency of the test article(s) was measured using the in vitro broth microdilution assay under assay conditions described by the Clinical and Laboratory Standards Institute. […] The test substance was dissolved in 100% DMSO (unless stated below), suspended completely by sonication or vortexing, diluted by 2-fold serial titrations in the same vehicle, for a total of 11 test concentrations. A 4 μL aliquot of each dilution was added to 196 μL of broth medium seeded with the organism suspension in wells of a 96 well plate (bacterial count: 2−8×10^5 colony forming units/mL final). The final volume was 200 μL in each well and the final DMSO concentration was 2 percent. Following incubation, the test plates were visually examined and wells were scored for growth or complete growth inhibition to define the minimum inhibitory concentration. Each test substance was evaluated in duplicate and the results below are the duplicate test values. Vehicle-control and an active reference agent were used as blank and positive controls, respectively.

[2] = system: Klebsiella pneumoniae (ATCC 43816); experiment: MIC by broth microdilution
Method: as §1, with “DMSO,” for “DMSO (unless stated below),”, “incubation for 1 day at 36° C.,” for “incubation,”, “were reported as” for “below are”, “respectively. Microorganisms tested were Acinetobacter baumannii (ATCC 17978), Enterococcus faecalis (ATCC 29212), Enterococcus faecium VanA (ATCC 700221), Escherichia coli (ATCC 25922), Escherichia coli efflux defective DEL-tolC (JW5503), Heamophilus influenzae (ATCC 49247), Klebsiella pneumoniae (ATCC 43816), Pseudomonas aeruginosa (ATCC 27853), Pseudomonas aeruginosa MDR (NTUH-974), Staphylococcus aureus (ATCC 29213), Staphylococcus aureus MRSA (ATCC 33591) and Streptococcous pneumoniae (ATCC 46919). H. influenzae was grown in Haemophilus Test Medium and S. pneumoniae was grown in cation adjusted Muller-Hinton Broth II with 5% lysed horse blood. All other microorganisms were grown in cation adjusted Muller-Hinton Broth II.” for “respectively.”
as §1

[3] = system: Pseudomonas aeruginosa (ATCC 27853); experiment: MIC by broth microdilution
Method: as §1, with “DMSO,” for “DMSO (unless stated below),”, “incubation for 1 day at 36° C.,” for “incubation,”, “were reported as” for “below are”, “respectively. Microorganisms tested were Acinetobacter baumannii (ATCC 17978), Enterococcus faecalis (ATCC 29212), Enterococcus faecium VanA (ATCC 700221), Escherichia coli (ATCC 25922), Escherichia coli efflux defective DEL-tolC (JW5503), Heamophilus influenzae (ATCC 49247), Klebsiella pneumoniae (ATCC 43816), Pseudomonas aeruginosa (ATCC 27853), Pseudomonas aeruginosa MDR (NTUH-974), Staphylococcus aureus (ATCC 29213), Staphylococcus aureus MRSA (ATCC 33591) and Streptococcous pneumoniae (ATCC 46919). H. influenzae was grown in Haemophilus Test Medium and S. pneumoniae was grown in cation adjusted Muller-Hinton Broth II with 5% lysed horse blood. All other microorganisms were grown in cation adjusted Muller-Hinton Broth II.” for “respectively.”
as §1

[4] = system: Escherichia coli (ATCC 25922); experiment: MIC by broth microdilution
Method: as §1, with “DMSO,” for “DMSO (unless stated below),”, “incubation for 1 day at 36° C.,” for “incubation,”, “were reported as” for “below are”, “respectively. Microorganisms tested were Acinetobacter baumannii (ATCC 17978), Enterococcus faecalis (ATCC 29212), Enterococcus faecium VanA (ATCC 700221), Escherichia coli (ATCC 25922), Escherichia coli efflux defective DEL-tolC (JW5503), Heamophilus influenzae (ATCC 49247), Klebsiella pneumoniae (ATCC 43816), Pseudomonas aeruginosa (ATCC 27853), Pseudomonas aeruginosa MDR (NTUH-974), Staphylococcus aureus (ATCC 29213), Staphylococcus aureus MRSA (ATCC 33591) and Streptococcous pneumoniae (ATCC 46919). H. influenzae was grown in Haemophilus Test Medium and S. pneumoniae was grown in cation adjusted Muller-Hinton Broth II with 5% lysed horse blood. All other microorganisms were grown in cation adjusted Muller-Hinton Broth II.” for “respectively.”
as §1

[5] = system: Acinetobacter baumannii (ATCC 17978); experiment: MIC by broth microdilution
Method: as §1, with “DMSO,” for “DMSO (unless stated below),”, “incubation for 1 day at 36° C.,” for “incubation,”, “were reported as” for “below are”, “respectively. Microorganisms tested were Acinetobacter baumannii (ATCC 17978), Enterococcus faecalis (ATCC 29212), Enterococcus faecium VanA (ATCC 700221), Escherichia coli (ATCC 25922), Escherichia coli efflux defective DEL-tolC (JW5503), Heamophilus influenzae (ATCC 49247), Klebsiella pneumoniae (ATCC 43816), Pseudomonas aeruginosa (ATCC 27853), Pseudomonas aeruginosa MDR (NTUH-974), Staphylococcus aureus (ATCC 29213), Staphylococcus aureus MRSA (ATCC 33591) and Streptococcous pneumoniae (ATCC 46919). H. influenzae was grown in Haemophilus Test Medium and S. pneumoniae was grown in cation adjusted Muller-Hinton Broth II with 5% lysed horse blood. All other microorganisms were grown in cation adjusted Muller-Hinton Broth II.” for “respectively.”
as §1

[6] = system: Escherichia coli, efflux defective DEL-tolC (JW5503); experiment: MIC by broth microdilution
Method: as §1, with “DMSO,” for “DMSO (unless stated below),”, “incubation for 1 day at 36° C.,” for “incubation,”, “were reported as” for “below are”, “respectively. Microorganisms tested were Acinetobacter baumannii (ATCC 17978), Enterococcus faecalis (ATCC 29212), Enterococcus faecium VanA (ATCC 700221), Escherichia coli (ATCC 25922), Escherichia coli efflux defective DEL-tolC (JW5503), Heamophilus influenzae (ATCC 49247), Klebsiella pneumoniae (ATCC 43816), Pseudomonas aeruginosa (ATCC 27853), Pseudomonas aeruginosa MDR (NTUH-974), Staphylococcus aureus (ATCC 29213), Staphylococcus aureus MRSA (ATCC 33591) and Streptococcous pneumoniae (ATCC 46919). H. influenzae was grown in Haemophilus Test Medium and S. pneumoniae was grown in cation adjusted Muller-Hinton Broth II with 5% lysed horse blood. All other microorganisms were grown in cation adjusted Muller-Hinton Broth II.” for “respectively.”
as §1

[7] = system: Pseudomonas aeruginosa, MDR (NTUH-974); experiment: MIC by broth microdilution
Method: as §1, with “DMSO,” for “DMSO (unless stated below),”, “incubation for 1 day at 36° C.,” for “incubation,”, “were reported as” for “below are”, “respectively. Microorganisms tested were Acinetobacter baumannii (ATCC 17978), Enterococcus faecalis (ATCC 29212), Enterococcus faecium VanA (ATCC 700221), Escherichia coli (ATCC 25922), Escherichia coli efflux defective DEL-tolC (JW5503), Heamophilus influenzae (ATCC 49247), Klebsiella pneumoniae (ATCC 43816), Pseudomonas aeruginosa (ATCC 27853), Pseudomonas aeruginosa MDR (NTUH-974), Staphylococcus aureus (ATCC 29213), Staphylococcus aureus MRSA (ATCC 33591) and Streptococcous pneumoniae (ATCC 46919). H. influenzae was grown in Haemophilus Test Medium and S. pneumoniae was grown in cation adjusted Muller-Hinton Broth II with 5% lysed horse blood. All other microorganisms were grown in cation adjusted Muller-Hinton Broth II.” for “respectively.”
as §1

Gram-negative bacteria = experiment: MIC by broth microdilution, overall statement in words; conditions: Example 1, statement in words
Method: as §1, with “DMSO,” for “DMSO (unless stated below),”, “incubation for 1 day at 36° C.,” for “incubation,”, “were reported as” for “below are”, “respectively. Microorganisms tested were Acinetobacter baumannii (ATCC 17978), Enterococcus faecalis (ATCC 29212), Enterococcus faecium VanA (ATCC 700221), Escherichia coli (ATCC 25922), Escherichia coli efflux defective DEL-tolC (JW5503), Heamophilus influenzae (ATCC 49247), Klebsiella pneumoniae (ATCC 43816), Pseudomonas aeruginosa (ATCC 27853), Pseudomonas aeruginosa MDR (NTUH-974), Staphylococcus aureus (ATCC 29213), Staphylococcus aureus MRSA (ATCC 33591) and Streptococcous pneumoniae (ATCC 46919). H. influenzae was grown in Haemophilus Test Medium and S. pneumoniae was grown in cation adjusted Muller-Hinton Broth II with 5% lysed horse blood. All other microorganisms were grown in cation adjusted Muller-Hinton Broth II.” for “respectively.”
as §1

[8] = system: Streptococcus pneumoniae (ATCC 49619); experiment: MIC by broth microdilution; conditions: Table 1, Example 1
Method: as §1, with “DMSO,” for “DMSO (unless stated below),”, “incubation for 1 day at 36° C.,” for “incubation,”, “were reported as” for “below are”, “respectively. Microorganisms tested were Acinetobacter baumannii (ATCC 17978), Enterococcus faecalis (ATCC 29212), Enterococcus faecium VanA (ATCC 700221), Escherichia coli (ATCC 25922), Escherichia coli efflux defective DEL-tolC (JW5503), Heamophilus influenzae (ATCC 49247), Klebsiella pneumoniae (ATCC 43816), Pseudomonas aeruginosa (ATCC 27853), Pseudomonas aeruginosa MDR (NTUH-974), Staphylococcus aureus (ATCC 29213), Staphylococcus aureus MRSA (ATCC 33591) and Streptococcous pneumoniae (ATCC 46919). H. influenzae was grown in Haemophilus Test Medium and S. pneumoniae was grown in cation adjusted Muller-Hinton Broth II with 5% lysed horse blood. All other microorganisms were grown in cation adjusted Muller-Hinton Broth II.” for “respectively.”

[9] = system: Enterococcus faecalis (ATCC29212); experiment: MIC by broth microdilution; conditions: Table 1, Example 1
Method: as §1, with “DMSO,” for “DMSO (unless stated below),”, “incubation for 1 day at 36° C.,” for “incubation,”, “were reported as” for “below are”, “respectively. Microorganisms tested were Acinetobacter baumannii (ATCC 17978), Enterococcus faecalis (ATCC 29212), Enterococcus faecium VanA (ATCC 700221), Escherichia coli (ATCC 25922), Escherichia coli efflux defective DEL-tolC (JW5503), Heamophilus influenzae (ATCC 49247), Klebsiella pneumoniae (ATCC 43816), Pseudomonas aeruginosa (ATCC 27853), Pseudomonas aeruginosa MDR (NTUH-974), Staphylococcus aureus (ATCC 29213), Staphylococcus aureus MRSA (ATCC 33591) and Streptococcous pneumoniae (ATCC 46919). H. influenzae was grown in Haemophilus Test Medium and S. pneumoniae was grown in cation adjusted Muller-Hinton Broth II with 5% lysed horse blood. All other microorganisms were grown in cation adjusted Muller-Hinton Broth II.” for “respectively.”

[10] = system: Enterococcus faecium, VanA (ATCC 700221); experiment: MIC by broth microdilution; conditions: Table 1, Example 1
Method: as §1, with “DMSO,” for “DMSO (unless stated below),”, “incubation for 1 day at 36° C.,” for “incubation,”, “were reported as” for “below are”, “respectively. Microorganisms tested were Acinetobacter baumannii (ATCC 17978), Enterococcus faecalis (ATCC 29212), Enterococcus faecium VanA (ATCC 700221), Escherichia coli (ATCC 25922), Escherichia coli efflux defective DEL-tolC (JW5503), Heamophilus influenzae (ATCC 49247), Klebsiella pneumoniae (ATCC 43816), Pseudomonas aeruginosa (ATCC 27853), Pseudomonas aeruginosa MDR (NTUH-974), Staphylococcus aureus (ATCC 29213), Staphylococcus aureus MRSA (ATCC 33591) and Streptococcous pneumoniae (ATCC 46919). H. influenzae was grown in Haemophilus Test Medium and S. pneumoniae was grown in cation adjusted Muller-Hinton Broth II with 5% lysed horse blood. All other microorganisms were grown in cation adjusted Muller-Hinton Broth II.” for “respectively.”

[11] = system: Staphylococcus aureus (ATCC 29213); experiment: MIC by broth microdilution; conditions: Table 1, Example 1
Method: as §1, with “DMSO,” for “DMSO (unless stated below),”, “incubation for 1 day at 36° C.,” for “incubation,”, “were reported as” for “below are”, “respectively. Microorganisms tested were Acinetobacter baumannii (ATCC 17978), Enterococcus faecalis (ATCC 29212), Enterococcus faecium VanA (ATCC 700221), Escherichia coli (ATCC 25922), Escherichia coli efflux defective DEL-tolC (JW5503), Heamophilus influenzae (ATCC 49247), Klebsiella pneumoniae (ATCC 43816), Pseudomonas aeruginosa (ATCC 27853), Pseudomonas aeruginosa MDR (NTUH-974), Staphylococcus aureus (ATCC 29213), Staphylococcus aureus MRSA (ATCC 33591) and Streptococcous pneumoniae (ATCC 46919). H. influenzae was grown in Haemophilus Test Medium and S. pneumoniae was grown in cation adjusted Muller-Hinton Broth II with 5% lysed horse blood. All other microorganisms were grown in cation adjusted Muller-Hinton Broth II.” for “respectively.”

[12] = system: Staphylococcus aureus, MRSA (ATCC 33591); experiment: MIC by broth microdilution; conditions: Table 1, Example 1
Method: as §1, with “DMSO,” for “DMSO (unless stated below),”, “incubation for 1 day at 36° C.,” for “incubation,”, “were reported as” for “below are”, “respectively. Microorganisms tested were Acinetobacter baumannii (ATCC 17978), Enterococcus faecalis (ATCC 29212), Enterococcus faecium VanA (ATCC 700221), Escherichia coli (ATCC 25922), Escherichia coli efflux defective DEL-tolC (JW5503), Heamophilus influenzae (ATCC 49247), Klebsiella pneumoniae (ATCC 43816), Pseudomonas aeruginosa (ATCC 27853), Pseudomonas aeruginosa MDR (NTUH-974), Staphylococcus aureus (ATCC 29213), Staphylococcus aureus MRSA (ATCC 33591) and Streptococcous pneumoniae (ATCC 46919). H. influenzae was grown in Haemophilus Test Medium and S. pneumoniae was grown in cation adjusted Muller-Hinton Broth II with 5% lysed horse blood. All other microorganisms were grown in cation adjusted Muller-Hinton Broth II.” for “respectively.”

Structure (SMILES)	MIC [1] [µg/mL]	MIC ([2]; Table 2, Example 2) [µg/mL]	MIC ([3]; Table 2, Example 2) [µg/mL]	MIC ([4]; Table 2, Example 2) [µg/mL]	MIC ([5]; Table 2, Example 2) [µg/mL]	MIC ([6]; Table 2, Example 2) [µg/mL]	MIC ([7]; Table 2, Example 2) [µg/mL]	activity against Gram-negative bacteria (Gram-negative bacteria)	MIC [8] [µg/mL]	MIC [9] [µg/mL]	MIC [10] [µg/mL]	MIC [11] [µg/mL]	MIC [12] [µg/mL]	MIC ([2]; Table 1, Example 1) [µg/mL]	MIC ([3]; Table 1, Example 1) [µg/mL]	MIC ([4]; Table 1, Example 1) [µg/mL]	MIC ([5]; Table 1, Example 1) [µg/mL]	MIC ([6]; Table 1, Example 1) [µg/mL]	MIC ([7]; Table 1, Example 1) [µg/mL]
Nc1ccc(CCc2cc(CCc3ccc(N)cc3)cc(CCc3ccc(N)cc3)c2)cc1 [Compound 2 (TSB014)]	>32.0	>32.0	>32.0	>32.0	>32.0	>32.0	>32.0	–	–	–	–	–	–	–	–	–	–	–	–
CN(C)Cc1ccc(/C=C/c2cc(/C=C/c3ccc(CN(C)C)cc3)cc(/C=C/c3ccc(CN(C)C)cc3)c2)cc1 [Compound 2]	>128	16 (≈ 28.8 µM)	64 (≈ 115 µM)	8 (≈ 14.4 µM)	16 (≈ 28.8 µM)	4 (≈ 7.2 µM)	32 (≈ 57.6 µM)	active	32 (≈ 57.6 µM)	4 (≈ 7.2 µM)	2 (≈ 3.6 µM)	4 (≈ 7.2 µM)	4 (≈ 7.2 µM)	16 (≈ 28.8 µM)	64 (≈ 115 µM)	8 (≈ 14.4 µM)	16 (≈ 28.8 µM)	4 (≈ 7.2 µM)	32 (≈ 57.6 µM)
